Source: patent publication US4075341A, “2-Substituted phenyl-5-triazols [5,1-a] isoquinoline compounds” (Gruppo Lepetit S.p.A., priority 1975, dated 1978)

System: carrageenin induced edema
Test: carrageenin test in rats (anti-inflammatory activity)
Assay type: in vivo
Settings: Rattus norvegicus, po
Description: The anti-inflammatory activity of some inventive compounds was evidenced by means of the carrageenin test in rats.

Work on `Sc1nc2n(n1)CCc1ccccc1-2` [Example 38, 2-Sulfhydryl-5,6-dihydro-s-triazolo[5,1-a]isoquinoline] yielded an inhibition at 50 mg/kg (50 mg./kg. p.o.) of about 35%.

For `NC(=O)Nc1nc2n(n1)CCc1ccccc1-2` [Example 54, 2-Ureido-5,6-dihydro-s-triazolo[5,1-a]isoquinoline], the inhibition at 100 mg/kg (100 mg./kg. p.o.) was about 35%.
